A short description of data set [1]: Tablet dissolution in 0.1 N HCl, paddle. It is filed as physicochemical. The note with it: combination tablet, 50 rpm, 900 ml.
Data set [2] in a line: Flow property (angle of repose). It is filed as physicochemical. The note with it: procedure of Lachman et al., page 317.
A short description of data set [3]: Bulk density and tap density of crystal forms. It is filed as physicochemical. The source says:
The novel crystalline hemihydrate form (form III) of Lamivudine has better flow property and bulk density, which are important parameters for formulation (Table I). [table]

The next data set is described as follows: Bioavailability. It is filed as in vivo. The note with it: compared with known forms.
Data set [4] in a line: Polymorphic stability during milling. It is filed as physicochemical.
The nature of data set [5]: Storage stability at 40±2° C. RH 75±5%. It is filed as physicochemical. The note with it: stored at 40±2° C. RH 75±5%.
Data set [6] in a line: Polymorphic stability when slurried in water. It is filed as physicochemical. The note with it: slurried in water at ambient temperature for 24 to 48 hours. The method, then: A suspension of the Lamivudine form-II (5.0 gm) in water (5.0 ml) was stirred at 25° C. for 48 hours. The suspension was cooled and stirred at 10° C. for one hour. The product was filtered and then dried under vacuum at 45° C. for 24 hours. Yield=4.5 gms
A suspension of the Lamivudine form-I (2.0 gm) in water (2.0 ml) was stirred at 25° C. for 24 hours. The suspension was cooled and stirred at 10° C. for one hour. The product was filtered and then dried under vacuum at 45° C. for 24 hours. Yield=1.6 gms

The conditions of data set [7]: background, U.S. Pat. No. 5,905,082; cited from earlier work.

`Cc1cn([C@H]2C[C@H](N=[N+]=[N-])[C@@H](CO)O2)c(=O)[nH]c1=O` [Zidovudine]: the “Dissolution (%)” value was 81.1% in data set [1] (5 minutes); 87.8% in data set [1] (10 minutes); 95.2% in data set [1] (20 minutes); 100.4% in data set [1] (30 minutes); 101.5% in data set [1] (40 minutes).
Turning to `Nc1cc[n+](C2CSC(CO)O2)c(=O)[nH]1` (stereo not drawn) [Form III, (2R-cis)-4-amino-1-[2-(hydroxymethyl)-1,3-oxathiolan-5-yl]-2(1H)-pyrimidinone], the “Flow Property (Angle of Repose)” value in data set [2] is reported as 32.00°. Moreover, in data set [3], the “Bulk Density” value turned out to be 0.64 gm/cc and the “Tap Density” value is listed as 0.83 gm/cc. Further, the Bioavailability entry in the data set “Bioavailability” is reported as “comparable bioavailability”. The “Change in crystal structure during milling” value in data set [4] is reported as “does not undergo any change in crystal structure during milling”. Moreover, the Stability on storage entry in data set [5] is listed as “stable for more than three months”.
As for `Nc1cc[n+](C2CSC(CO)O2)c(=O)[nH]1` (stereo not drawn) [Form I, (2R-cis)-4-amino-1-[2-(hydroxymethyl)-1,3-oxathiolan-5-yl]-2(1H)-pyrimidinone], the “Flow Property (Angle of Repose)” value in data set [2] was 33.66°. Further, in data set [3], the “Bulk Density” value amounted to 0.46 gm/cc and the “Tap Density” value was 0.60 gm/cc. Besides, the “Change of crystal form when slurried in water” value in data set [6] is recorded as “get converted to Form III”. The “Change of crystal form during milling and formulation operation” value in data set [7] is listed as “converts to form II”.
`Nc1cc[n+](C2CSC(CO)O2)c(=O)[nH]1` (stereo not drawn) [Lamivudine, (2R-cis)-4-amino-1-[2-(hydroxymethyl)-1,3-oxathiolan-5-yl]-2(1H)-pyrimidinone]: the “Dissolution (%)” value in data set [1] (5 minutes) worked out at 80.9%; in data set [1] (10 minutes) it was 86.2%; in data set [1] (20 minutes) it was 92.0%; in data set [1] (30 minutes), 96.0%; in data set [1] (40 minutes), 96.7%.
With `Nc1cc[n+](C2CSC(CO)O2)c(=O)[nH]1` (stereo not drawn) [Form II, (2R-cis)-4-amino-1-[2-(hydroxymethyl)-1,3-oxathiolan-5-yl]-2(1H)-pyrimidinone], in data set [2], the “Flow Property (Angle of Repose)” value was determined as 32.00°. In data set [3], the “Bulk Density” value amounted to 0.38 gm/cc and the “Tap Density” value worked out at 0.55 gm/cc. Moreover, the “Change of crystal form when slurried in water” value in data set [6] is on record as “get converted to Form III”.
